ChEMBL document CHEMBL1136837, “Unified QSAR approach to antimicrobials. 4. Multi-target QSAR modeling and comparative multi-distance study of the giant components of antiviral drug-drug complex networks” (Bioorg Med Chem, 2009)

Legend:
Human alphaherpesvirus 1 = test: Antiviral activity against Herpes simplex virus 1; assay type: functional, organism-based; details: Human alphaherpesvirus 1
Human alphaherpesvirus 2 = test: Antiviral activity against Herpes simplex virus 2; assay type: functional, organism-based; details: Human alphaherpesvirus 2
[1] = test system: Human immunodeficiency virus 1; test: Antiviral activity against HIV1; assay type: functional, organism-based
[2] = test system: Human immunodeficiency virus 2; test: Antiviral activity against HIV2; assay type: functional, organism-based
[3] = test system: Moloney murine sarcoma virus; test: Antiviral activity against Moloney sarcoma virus; assay type: functional, organism-based
Human alphaherpesvirus 3 = test: Antiviral activity against Varicella zoster virus; assay type: functional, organism-based
Human rhinovirus sp. = test: Antiviral activity against Human rhinovirus; assay type: functional, organism-based
Simplexvirus = test: Antiviral activity against Herpes simplex virus; assay type: functional, organism-based
Human adenovirus 2 = test: Antiviral activity against Human adenovirus 2; assay type: functional, organism-based; details: Human mastadenovirus C
Human gammaherpesvirus 4 = test: Antiviral activity against Epstein-Barr virus; assay type: functional, organism-based
Hepatitis B virus = test: Antiviral activity against Hepatitis B virus; assay type: functional, organism-based
Influenza A virus = test: Antiviral activity against influenza H1N1 virus; assay type: functional, organism-based
Human betaherpesvirus 5 = test: Antiviral activity against Human cytomegalovirus; assay type: functional, organism-based; details: Human betaherpesvirus 5
Human betaherpesvirus 6 [4] = test: Antiviral activity against Human herpesvirus 6A; assay type: functional, organism-based
Human betaherpesvirus 6 [5] = test: Antiviral activity against Human herpesvirus 6B; assay type: functional, organism-based
Cowpox virus = test: Antiviral activity against Cowpox virus; assay type: functional, organism-based
Vaccinia virus = test: Antiviral activity against Vaccinia virus; assay type: functional, organism-based, Orthopoxvirus vaccinia; details: Orthopoxvirus vaccinia
Picornaviridae = test: Antiviral activity against Human picornavirus; assay type: functional, organism-based
Human gammaherpesvirus 8 = test: Antiviral activity against Human herpesvirus 8; assay type: functional, organism-based
Influenza B virus = test: Antiviral activity against influenza B virus; assay type: functional, organism-based
Influenza A virus H3N2 = test: Antiviral activity against influenza H3N2 virus; assay type: functional, organism-based, H3N2 subtype

Nc1cc(=O)n(CCOCP(=O)(O)O)cn1
IC50 (Human alphaherpesvirus 1): 1.61 nM
IC50 (Human alphaherpesvirus 2): 1.61 nM
IC50 [1]: 0.402 nM
IC50 [2]: 0.402 nM
IC50 [3]: 0.554 nM
IC50 (Human alphaherpesvirus 3): 0.201 nM

CCOC(=O)/C=C/[C@H](CCC(N)=O)NC(=O)[C@H](Cc1ccccc1)n1cccc(NC(=O)c2cc(C)on2)c1=O
IC50 (Human rhinovirus sp.): 16 nM

O=C(NCc1ccc(Cl)cc1)c1cnc2ccc(C#CCO)cc2c1O
IC50 (Simplexvirus): 20000 nM
IC50 (Human alphaherpesvirus 3): 680 nM

Nc1ccn([C@H]2CC[C@@H](CO)O2)c(=O)n1 [ZALCITABINE]
IC50 (Human adenovirus 2): 3300 nM

Cc1cn(/C=C2/CC2(F)CO)c(=O)[nH]c1=O (stereo not drawn)
IC50 (Human gammaherpesvirus 4): 51700 nM
IC50 (Hepatitis B virus): 20000 nM
IC50 [1]: 100000 nM
IC50 (Human alphaherpesvirus 3): 620 nM

CCC(CC)C(NC(C)=O)C1CC(C(=O)O)CC1NC(=N)N (stereo not drawn)
IC50 (Influenza A virus): 640 nM

O=C(NCc1ccc(Cl)cc1)c1cnc2c(F)cccc2c1O
IC50 (Simplexvirus): 13000 nM
IC50 (Human betaherpesvirus 5): 11000 nM
IC50 (Human alphaherpesvirus 3): 1200 nM

OC[C@H]1O[C@@H](n2c(Br)nc3cc(Cl)c(Cl)cc32)[C@H](O)[C@@H]1O
IC50 (Human betaherpesvirus 6 [4]): 125000 nM
IC50 (Human betaherpesvirus 6 [5]): 125000 nM

Nc1ncnc2c1ncn2C[C@@H](CO)OCP(=O)(O)O
IC50 (Human adenovirus 2): 630 nM
IC50 (Cowpox virus): 5000 nM
IC50 (Vaccinia virus): 3500 nM

CCCCCCCCCCCCCCCCCCOCCOP(=O)(O)CO[C@H](CO)Cn1ccc(N)nc1=O
IC50 (Simplexvirus): 1 nM
IC50 (Vaccinia virus): 240 nM

CCOC(=O)/C=C/[C@H](CCC(N)=O)NC(=O)[C@H](Cc1ccccc1)n1cccc(NC(C)=O)c1=O
IC50 (Human rhinovirus sp.): 888 nM

Nc1cc(O)nc(SCCOCP(=O)(O)O)n1
IC50 (Human alphaherpesvirus 1): 1.42 nM
IC50 (Human alphaherpesvirus 2): 1.42 nM
IC50 [1]: 0.356 nM
IC50 [3]: 0.256 nM
IC50 (Human alphaherpesvirus 3): 0.178 nM

Nc1nc(O)cc(NC2CC2)n1
IC50 (Human alphaherpesvirus 1): 2.41 nM
IC50 [3]: 0.801 nM

CCOC(=O)/C=C/[C@H](CCC(N)=O)NC(=O)[C@H](Cc1ccc(F)cc1)n1cccc(NC(=O)OCc2ccccc2)c1=O
IC50 (Human rhinovirus sp.): 14 nM

Nc1nc2ccc(/C(=N/Nc3ccccc3)c3ccccc3)nn2c1-c1ccc(F)cc1
IC50 (Picornaviridae): 10000 nM

Nc1cc(SCCOCP(=O)(O)O)nc(N)n1
IC50 (Human alphaherpesvirus 1): 0.104 nM
IC50 (Human alphaherpesvirus 2): 0.286 nM
IC50 [3]: 607 nM
IC50 (Human alphaherpesvirus 3): 0.0536 nM

Nc1ccn([C@@H]2CS[C@H](CO)O2)c(=O)n1 [LAMIVUDINE]
IC50 (Human adenovirus 2): 100000 nM
IC50 (Cowpox virus): 436000 nM
IC50 (Vaccinia virus): 436000 nM

CCOC(=O)/C=C/[C@H](CCC(N)=O)NC(=O)[C@H](Cc1ccc(F)c(F)c1)n1cccc(NC(=O)OCc2ccccc2)c1=O
IC50 (Human rhinovirus sp.): 3 nM

Nc1nc2ccc(/C(=N/O)c3ccccc3)nn2c1-c1ccc(F)cc1
IC50 (Picornaviridae): 50 nM

CCOC(=O)/C=C/[C@H](CCC(N)=O)NC(=O)[C@H](Cc1ccccc1)n1cccc(NC(=O)C(C)(C)C)c1=O
IC50 (Human rhinovirus sp.): 518 nM

Nc1nc(OCCOCP(=O)(O)O)cc(=O)n1CCOCP(=O)(O)O
IC50 (Human alphaherpesvirus 1): 0.993 nM
IC50 (Human alphaherpesvirus 2): 0.993 nM
IC50 [1]: 0.248 nM
IC50 [2]: 0.248 nM
IC50 [3]: 0.266 nM
IC50 (Human alphaherpesvirus 3): 0.124 nM

CCOC(=O)/C=C/[C@H](C[C@@H]1CCNC1=O)NC(=O)/C=C/c1ccc(C)c(Br)c1
IC50 (Human rhinovirus sp.): 1290 nM

CCOC(=O)/C=C/[C@H](CCC(N)=O)NC(=O)Cn1cccc(NC(=O)OCc2ccccc2)c1=O
IC50 (Human rhinovirus sp.): 10000 nM

Nc1nc2c(ncn2COC(CO)CO)c(=O)[nH]1 [GANCICLOVIR]
IC50 (Human adenovirus 2): 35000 nM
IC50 (Vaccinia virus): 392000 nM

CCOC(=O)/C=C/[C@H](C[C@@H]1CCNC1=O)NC(=O)/C=C/c1cccc(Br)c1
IC50 (Human rhinovirus sp.): 1400 nM

CNC(=O)/C=C(\c1ccc(C)cc1)c1ccc2nc(NCC(=O)NC)c(-c3ccc(F)cc3)n2n1
IC50 (Picornaviridae): 230 nM

Nc1ncnc2c1c(Br)cn2COCCO
IC50 (Simplexvirus): 16000 nM

Nc1nc2c(ncn2/C=C2\CC2(CO)CO)c(=O)[nH]1
IC50 (Human gammaherpesvirus 4): 119000 nM
IC50 (Human alphaherpesvirus 1): 380000 nM
IC50 (Human alphaherpesvirus 2): 380000 nM
IC50 (Human betaherpesvirus 5): 123000 nM
IC50 (Human betaherpesvirus 6 [4]): 116000 nM
IC50 (Human betaherpesvirus 6 [5]): 43000 nM
IC50 (Human gammaherpesvirus 8): 190000 nM
IC50 (Human alphaherpesvirus 3): 380000 nM

Nc1nc(N)c(C2CC2)c(OCCOCP(=O)(O)O)n1
IC50 (Human alphaherpesvirus 1): 1.2 nM
IC50 (Human alphaherpesvirus 2): 1.2 nM
IC50 [1]: 0.3 nM
IC50 [2]: 0.3 nM
IC50 (Human betaherpesvirus 5): 1.2 nM
IC50 (Vaccinia virus): 1.2 nM
IC50 (Human alphaherpesvirus 3): 1.2 nM

Nc1nc2ccc(/C(=N/O)c3ccccc3)nn2c1-c1ccccc1
IC50 (Picornaviridae): 40 nM

CCOC(=O)/C=C/[C@H](C[C@@H]1CCNC1=O)NC(=O)/C=C/c1ccc2c(c1)OCO2
IC50 (Human rhinovirus sp.): 1810 nM

CCOC(=O)/C=C/[C@H](C[C@@H]1CCNC1=O)NC(=O)C1=Cc2ccccc2OC1
IC50 (Human rhinovirus sp.): 1190 nM

NC12CC3CC(CC(C3)C1)C2 [AMANTADINE]
IC50 (Influenza B virus): 50000 nM
IC50 (Influenza A virus): 50000 nM
IC50 (Influenza A virus H3N2): 630 nM

Nc1ncnc2c1c(Br)cn2COC(CO)CO
IC50 (Simplexvirus): 1800 nM
IC50 (Human betaherpesvirus 5): 1500 nM

Nc1nc(N)c(Cc2ccccc2)c(OCCOCP(=O)(O)O)n1
IC50 (Human alphaherpesvirus 1): 1.2 nM
IC50 (Human alphaherpesvirus 2): 0.66 nM
IC50 [1]: 0.3 nM
IC50 [2]: 0.3 nM
IC50 (Human betaherpesvirus 5): 0.15 nM
IC50 (Vaccinia virus): 1.2 nM
IC50 (Human alphaherpesvirus 3): 0.15 nM
